Patent US11596623B2, “Methods for treating virus infection or proliferation” (HOWARD UNIVERSITY, priority 2018, dated 2023)

Key:
HSV-1 [1] = assay: HSV-1 cytopathic effect in HEp-2 cells under microscope; format: cell-based; settings: 24 h, different concentrations, versus DMSO
Experimental: The HSV-1 virus and the indicated concentration of compounds were added and incubated for 24 h. After washing way the virus with PBS, image was taken under a compound microscope.

HSV-1 [2] = assay: HSV-1 viral protein western blot in HEp-2 cells; format: cell-based; settings: pre-treated 24 hours at 100 μM; 24 h after infection
From the text: Panel A of FIG. 3 depicts time and concentration dependent virus protein expression to deduce an optimum drug treatment regimen. […] Tubulin expression was used as the loading control for the blots.
HEp-2 cells (ATCC) were used for the infection of HSV-1. The cells were maintained in Dulbecco's Modified Eagle's medium (DMEM) supplemented with 10% fetal calf serum (FCS) and 1% penicillin-streptomycin (PS). Wild-type HSV-1 17 was obtained from R. D. Everett and used previously
Proteins were separated by SDS-PAGE (25 μg loaded in each lane), transferred to nitrocellulose membranes (Amersham Inc., Piscataway, N.J., USA), and blocked with 5% nonfat milk for 60 min at room temperature. Membranes were incubated overnight at 4° C. with primary antibody, followed by incubation with a horseradish peroxidase-coupled secondary antibody and detection with enhanced chemiluminescence (Pierce, Rockford, Ill., USA), according to standard methods. Membranes were stripped with stripping buffer (100 mM 2-mercaptoethanol, 2% SDS, 62.5 mM Tris-HCl, pH 6.8), washed with PBS-0.1% Tween-20, and used to detect additional proteins. For Arabidopsis lysates one-week old seedlings were treated with 10 uM of ABA in the presence/absence of the inhibitor compounds for 12 hours in a growth chamber (overnight) at 22° C. mostly in the dark. […]

RACK1A protein = assay: RACK1 protein expression under salt stress, western blot; format: in vivo; settings: Arabidopsis lysates
From the text: The abundant leaf protein Rubisco large subunit (RbcL) was used as a loading control for the blot. The 37 kD RACK1 band was absent from the genetic knockout of RACK1 plants (double mutant-rack1ab lane).
The reported positive expression of RACK1A protein under salt stress condition in Arabidopsis has led us to examine the RACK1A expression in the presence and absence of the inhibitor compounds during salt stresses. We determined that the RACK1A protein expression was specifically modulated by the inhibitor compounds when the lysates with salt or without salt in the presence and absence of the small compounds were probed with an antibody raised by using the full length RACK1A protein as antigen (Agrisera, Vännäs, Sweden, FIG. 2C). […] However, whether the effect of SD29-12 is Arabidopsis salt stress specific condition needs further experimental evidence. As the antibody cross-reacts with all three RACK1 isoforms in Arabidopsis, we used the double knockout (rack1ab) as a negative control on the blot (triple mutant is lethal at the early seedling stage). The large subunit of the abundant leaf protein rubisco (RbcL) was used as loading control for this blot. As the results support the in-silico based prediction, we set out to investigate the effect of the compounds on the mammalian RACK1 based virus proliferation.

RACK1 = target: T1, RACK1 (Homo sapiens, UniProt P63244); assay: RACK1 protein western blot in HSV-1 infected HEp-2 cells; format: cell-based; settings: pre-treated 24 hours at 100 μM; 24 h after HSV-1 infection
T1 construct: endogenous in cells; host or cells: HEp-2 cells (human laryngeal carcinoma line), virus-infected
Experimental: The virus used in this diagram is an HSV-1 F strain expressing luciferase (R8411 mutant) under the control of the ICP27 promoter and was a gift from Prof. Bernard Roizman (University of Chicago). HEp-2 cells were grown to 80-90% confluency in Dulbecco's Modified Eagle's medium (DMEM) supplemented with 10% fetal calf serum (PCS) and 1% penicillin-streptomycin (PS) and fungicide. The HSV-1 virus and the indicated concentration of compound(s) were added and incubated for 24 h (A of FIG. 13 and B of FIG. 13) and for 48 h in panel C samples. The luciferase signals were imaged and quantified in a Perkin Elmer IVIS Spectrum Imaging system. […] Three replicates from two separate experiments were combined to generate the average and the standard error bar. […] The compound(s) inhibit Y248 phosphorylation of RACK1 protein.
Proteins were separated by SDS-PAGE (25 μg loaded in each lane), transferred to nitrocellulose membranes (Amersham Inc., Piscataway, N.J., USA), and blocked with 5% nonfat milk for 60 min at room temperature. Membranes were incubated overnight at 4° C. with primary antibody, followed by incubation with a horseradish peroxidase-coupled secondary antibody and detection with enhanced chemiluminescence (Pierce, Rockford, Ill., USA), according to standard methods. […]

SMILES | cytopathic effect of HSV-1 (HSV-1 [1]) | HSV-1 protein production (ICP0, ICP8, gD) (HSV-1 [2]) | RACK1 protein expression under salt stress (RACK1A protein) | production of RACK1 (RACK1)
Nn1c(S)nnc1-c1cc(Cl)cc(Cl)c1 [SD29-14] | do not show the cytopathic effect |  |  | 
Nn1c(S)nnc1-c1ccc(F)cc1 [SD-29] |  | repressed HSV-1 protein production | inhibited RACK1 protein expression | reduced the production of RACK1
